What was measured:
Type in all cases: binding
[1] = biological target: T1, CXCR1 (Homo sapiens, UniProt P25024); experiment: NanoBRET screen HiBiT-CXCR1 in HEK293
T1 construct: purchased Promega (in-house HiBiT-GPCR construct library, NanoBRET)
T1 sequence (P25024 1-350): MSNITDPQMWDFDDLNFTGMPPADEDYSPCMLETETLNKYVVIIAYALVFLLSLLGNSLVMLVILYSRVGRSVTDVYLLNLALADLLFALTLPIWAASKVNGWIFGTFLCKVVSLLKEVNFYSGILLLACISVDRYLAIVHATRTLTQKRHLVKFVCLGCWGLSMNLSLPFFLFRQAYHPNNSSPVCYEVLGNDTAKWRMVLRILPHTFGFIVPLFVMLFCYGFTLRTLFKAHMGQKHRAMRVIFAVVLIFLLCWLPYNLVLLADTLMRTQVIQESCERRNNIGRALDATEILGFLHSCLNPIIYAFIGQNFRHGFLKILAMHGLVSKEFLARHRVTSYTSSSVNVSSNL
Procedure: (§1) Each tracer candidate was screened across the entire library of HiBiT-GPCR constructs using NanoBRET as the detection modality. As depicted in Figure 4A, the specificity of interactions was evaluated through decrease in BRET due to competitive displacement of a bound tracer by excess parental compound. Each tracer was analyzed for binding to each HiBiT-GPCR fusion in the absence and in the presence of competing parental compound. Briefly, HEK293 cells were transfected with HiBiT-GPCR constructs diluted into promoterless DNA to reduce expression and maximize translocation to the cell surface. Each tracer candidate was then screened at concentrations of 1 μM and 0.1 μM across cells expressing these fusions. Cells were treated for 1.5 h with tracer either alone or in the presence of 20 μM competing parental compound (i.e., control). BRET was measured upon addition of purified LgBiT and subsequent complementation with HiBiT genetically fused to a GPCR. The specificity of interactions was assessed through a decrease in BRET signal due to competitive displacement of the bound tracer. To further gauge the robustness of these interactions, the fold response over the control (i.e., BRETtracer/BRETcontrol) was calculated. We chose a 1.5-fold response, which translates to ≥7-fold signal over noise as the minimal threshold required to score an interaction as positive. […]. Below we highlight the screening results obtained for our exemplary fluorescent tracers based on Clozapine, Amitriptyline and AZD1283.
(§2) HiBiT-GPCR DNA constructs were diluted in 10 mM Tris pH 8 to a final concentration of 0.01 μg/μL, arrayed in 96-well plates and stored at −20 °C. For transfection, HEK293 cells were suspended in Opti-MEM (without phenol red) supplemented with 2% fetal bovine serum (Seradigm) and 100 units/mL penicillin–streptomycin (Gibco) at a final concentration of 220,000 cells/mL and dispensed into white 96-well plates at 90 μL/well. Subsequent transfections and screens were carried using an Agilent Bravo Automated Liquid Handling Platform. First, the 96-well HiBiT DNA arrays were diluted 25-fold in Opti-MEM (without serum or phenol red) to a final concentration of 0.0004 μg/μL and 20 μL of the diluted DNAs were transferred into new 96-well plates. Next, promoterless carrier DNA (1 μg/μL) was diluted 25-fold (0.04 μg/μL) and then dispensed into the diluted arrays at 20 μL/well. Following brief mixing, Viafect transfection reagent (Promega) diluted 16-fold into Opti-MEM was dispensed into the plates at 40 μL/well. After mixing by pipetting, plates were incubated for 10 min on the pipetting station deck. The DNA-transfection reagent complexes were then added to plates containing cells. To facilitate the screen, 10 μL of DNA-transfection reagent complexes were added in duplicates to the top 4 and bottom 4 rows, resulting in two identical 48-well arrays per plate. Plates with transfected cells were incubated for 18–20 h at 37 °C/5% CO2. A screen of each tracer across the entire library using two different concentrations requires duplicate plates of transfected cells. Depending on the number of tracers being screened, transfections can be scaled up using the same ratios. The next day, for each tracer, four 20× screening solutions in tracer dilution buffer (Promega) were prepared: two duplicates at final concentration of 20 μM and two duplicates at a final concentration of 2 μM. A competing unmodified compound was added to one of each duplicate at a final concentration of 400 μM. The four resulting solutions were diluted 4-fold in Opti-MEM without serum or phenol red to generate 5× solutions (5 µM and 0.5 µM tracer +/− 100 μM competing compound). To screen the library, a BioTek MultiFlo FX liquid dispenser was used to dispense 22.5 µL of tracer solution to the top 4 rows and 22.5 µL tracer + competing compound solution to the 4 bottom rows. Plates were briefly mixed on an orbital shaker and incubated for 1.5 h at room temperature. […]

[2] = biological target: T2, PTGER4 (Homo sapiens, UniProt P35408); experiment: NanoBRET screen HiBiT-PTGER4 in HEK293
T2 construct: purchased Promega (in-house HiBiT-GPCR construct library, NanoBRET)
T2 sequence (P35408 whole entry): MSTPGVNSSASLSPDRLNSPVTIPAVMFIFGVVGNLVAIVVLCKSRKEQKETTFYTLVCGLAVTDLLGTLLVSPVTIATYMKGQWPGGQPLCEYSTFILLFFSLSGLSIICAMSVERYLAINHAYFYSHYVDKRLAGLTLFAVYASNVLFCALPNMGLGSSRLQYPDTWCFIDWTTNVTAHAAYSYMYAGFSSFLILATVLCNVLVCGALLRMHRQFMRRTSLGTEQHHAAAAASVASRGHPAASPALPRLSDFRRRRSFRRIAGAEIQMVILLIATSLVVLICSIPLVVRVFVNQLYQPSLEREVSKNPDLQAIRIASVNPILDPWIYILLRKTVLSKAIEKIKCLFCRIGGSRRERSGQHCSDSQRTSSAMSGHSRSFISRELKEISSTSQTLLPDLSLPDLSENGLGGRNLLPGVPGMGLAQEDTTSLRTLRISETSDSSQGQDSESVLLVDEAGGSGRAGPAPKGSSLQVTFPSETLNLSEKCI
Procedure: as §1, §2

[3] = biological target: T3, HCRTR1 (Homo sapiens, UniProt O43613); experiment: NanoBRET screen HiBiT-HCRTR1 in HEK293
T3 construct: purchased Promega (in-house HiBiT-GPCR construct library, NanoBRET)
T3 sequence (O43613 1-425): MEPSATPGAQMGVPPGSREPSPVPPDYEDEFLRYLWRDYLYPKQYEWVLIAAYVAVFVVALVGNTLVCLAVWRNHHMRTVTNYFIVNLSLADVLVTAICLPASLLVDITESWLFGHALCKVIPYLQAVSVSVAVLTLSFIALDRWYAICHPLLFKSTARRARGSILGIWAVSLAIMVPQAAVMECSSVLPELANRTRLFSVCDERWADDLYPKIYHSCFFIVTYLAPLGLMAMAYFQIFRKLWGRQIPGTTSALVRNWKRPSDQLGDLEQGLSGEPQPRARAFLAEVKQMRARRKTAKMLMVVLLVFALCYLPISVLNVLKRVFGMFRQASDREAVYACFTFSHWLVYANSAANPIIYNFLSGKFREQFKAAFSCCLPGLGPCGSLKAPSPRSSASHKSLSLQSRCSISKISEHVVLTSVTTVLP
Procedure: as §1, §2

[4] = biological target: T4, DRD5 (Homo sapiens, UniProt P21918); experiment: NanoBRET screen HiBiT-DRD5 in HEK293
T4 construct: purchased Promega (in-house HiBiT-GPCR construct library, NanoBRET)
T4 sequence (P21918 whole entry): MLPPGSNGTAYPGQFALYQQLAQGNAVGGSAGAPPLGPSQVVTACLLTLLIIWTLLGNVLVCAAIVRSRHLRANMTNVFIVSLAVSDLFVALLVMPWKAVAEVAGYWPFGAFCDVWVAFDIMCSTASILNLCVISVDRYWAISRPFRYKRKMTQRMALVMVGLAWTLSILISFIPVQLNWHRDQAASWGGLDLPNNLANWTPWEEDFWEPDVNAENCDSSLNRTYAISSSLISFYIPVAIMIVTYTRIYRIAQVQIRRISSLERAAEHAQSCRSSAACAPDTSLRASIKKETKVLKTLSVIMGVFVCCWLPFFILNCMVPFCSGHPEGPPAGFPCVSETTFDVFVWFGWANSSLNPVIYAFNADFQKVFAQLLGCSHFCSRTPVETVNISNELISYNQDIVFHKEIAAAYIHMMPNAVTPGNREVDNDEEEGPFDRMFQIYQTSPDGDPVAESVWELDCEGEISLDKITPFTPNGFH
Procedure: as §1, §2

[5] = biological target: T5, AVPR2 (Homo sapiens, UniProt P30518); experiment: NanoBRET screen HiBiT-AVPR2 in HEK293
T5 construct: purchased Promega (in-house HiBiT-GPCR construct library, NanoBRET)
T5 sequence (P30518 whole entry): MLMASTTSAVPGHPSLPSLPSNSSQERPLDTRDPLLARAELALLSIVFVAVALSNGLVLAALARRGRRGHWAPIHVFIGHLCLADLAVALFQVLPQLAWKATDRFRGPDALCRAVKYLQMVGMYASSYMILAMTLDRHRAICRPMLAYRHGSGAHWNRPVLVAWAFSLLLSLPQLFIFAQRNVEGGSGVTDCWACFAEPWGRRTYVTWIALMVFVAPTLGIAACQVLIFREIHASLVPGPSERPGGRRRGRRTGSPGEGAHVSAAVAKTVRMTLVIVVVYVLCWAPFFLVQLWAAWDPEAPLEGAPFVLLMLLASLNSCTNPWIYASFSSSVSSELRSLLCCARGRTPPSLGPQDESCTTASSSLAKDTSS
Procedure: as §1, §2

[6] = tracer at 1μM, listed as amitriptyline-b-2-NB590
[7] = tracer at 0.1μM, listed as amitriptyline-b-2-NB590

SMILES: CCOC(=O)c1cc(C#N)c(N2CCC(C(=O)NS(=O)(=O)Cc3ccccc3/C=C/C(=O)NCCNC(=O)CCc3ccc4n3[B-](F)(F)[N+]3=C(c5ccc[nH]5)C=CC3=C4)CC2)nc1C [AZD1283-1-NB590]
- NanoBRET Fold Response ([1]; CXCR1, 0.1μM): 1.09
- NanoBRET Fold Response ([1]; CXCR1, 1μM): 1.13
- NanoBRET Fold Response ([2]; PTGER4, 0.1μM): 1.03
- NanoBRET Fold Response ([2]; PTGER4, 1μM): 1.02
- NanoBRET Fold Response ([3]; HCRTR1, 0.1μM): 1.00
- NanoBRET Fold Response ([3]; HCRTR1, 1μM): 1.09
- NanoBRET Fold Response ([4]; DRD5, 0.1μM): 1.02
- NanoBRET Fold Response ([4]; DRD5, 1μM): 1.13
- NanoBRET Fold Response ([5]; AVPR2, 0.1μM): 1.03
- NanoBRET Fold Response ([5]; AVPR2, 1μM): 1.05

SMILES: N#CN/C(=N\CCNC(=O)c1ccc(N)cc1)NCCCOc1cccc(CN2CCCCC2)c1 [Aminopotentidine (unmodified)]
- NanoBRET Fold Response ([4]; DRD5, other tracers/Aminopotentidine (unmodified), 0.1μM): 1.08
- NanoBRET Fold Response ([4]; DRD5, other tracers/Aminopotentidine (unmodified), 1μM): 1.09

SMILES: N#CN=C(NCCCOc1cccc(CN2CCCCC2)c1)NCCNC(=O)CCOCCOCCOCCOCCNC(=O)CCc1ccc2n1[B-](F)(F)[N+]1=C(c3ccc[nH]3)C=CC1=C2 [Aminopotentidine-2-NB590]
- NanoBRET Fold Response ([1]; CXCR1, tracer 0.1μM): 1.03
- NanoBRET Fold Response ([1]; CXCR1, tracer 1μM): 0.99
- NanoBRET Fold Response ([2]; PTGER4, tracer 0.1μM): 1.05
- NanoBRET Fold Response ([2]; PTGER4, tracer 1μM): 1.03
- NanoBRET Fold Response ([3]; HCRTR1, tracer 0.1μM): 0.98
- NanoBRET Fold Response ([3]; HCRTR1, tracer 1μM): 0.95
- NanoBRET Fold Response ([4]; DRD5, tracer 0.1μM): 1.02
- NanoBRET Fold Response ([4]; DRD5, tracer 1μM): 1.01
- NanoBRET Fold Response ([5]; AVPR2, tracer 0.1μM): 1.01
- NanoBRET Fold Response ([5]; AVPR2, tracer 1μM): 1.04

SMILES: CN(C)CCC=C1c2ccccc2CCc2ccc(C(=O)NCCNC(=O)CCOCCOCCOCCOCCNC(=O)CCc3ccc4n3[B-](F)(F)[N+]3=C(c5ccc[nH]5)C=CC3=C4)cc21 [Amitriptyline-a-2-NB590]
- NanoBRET Fold Response ([1]; tracer at 0.1μM): 1.05
- NanoBRET Fold Response ([1]; tracer at 1μM): 0.97
- NanoBRET Fold Response ([3]; tracer at 0.1μM): 1.00
- NanoBRET Fold Response ([3]; tracer at 1μM): 1.00
- NanoBRET Fold Response ([4]; tracer at 0.1μM): 1.11
- NanoBRET Fold Response ([4]; tracer at 1μM): 1.12
- NanoBRET Fold Response ([5]; tracer at 0.1μM): 0.95
- NanoBRET Fold Response ([5]; tracer at 1μM): 1.05

SMILES: CN(C)CCC=C1c2ccccc2CCc2ccc(C(=O)NCCNC(=O)CCOCCOCCOCCOCCNC(=O)CCc3ccc4n3[B-](F)(F)[N+]3=C(c5ccc[nH]5)C=CC3=C4)cc21 [Amitriptyline-b-2-NB590]
- NanoBRET Fold Response ([1]; tracer at 0.1μM): 0.97
- NanoBRET Fold Response [1, 6]: 1.11
- NanoBRET Fold Response ([2]; tracer at 0.1μM): 0.99
- NanoBRET Fold Response ([2]; tracer at 1μM): 1.04
- NanoBRET Fold Response [3, 7]: 1.08
- NanoBRET Fold Response [3, 6]: 0.91
- NanoBRET Fold Response [4, 7]: 1.08
- NanoBRET Fold Response [4, 6]: 1.42
- NanoBRET Fold Response [5, 7]: 1.13
- NanoBRET Fold Response [5, 6]: 0.89

Source: paper PMC8151276, “An Integrated Approach toward NanoBRET Tracers for Analysis of GPCR Ligand Engagement” (Molecules, 2021)
